Results from US8987314B2, “Amide, urea or sulfone amide linked benzothiazole inhibitors of endothelial lipase” (Bristol-Myers Squibb Company, priority 2012, dated 2015).
pIC50: −log10 of the molar value.

Experiments:
[1] = biological target: Endothelial lipase (EL) (Homo sapiens (Human), UniProt Q9Y5X9); assay: EL assay: endothelial lipase activity with fluorescent substrate A10070 in DMPG vesicles; format: biochemical
Outline: (§1)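 Substrate A10070 sits in sonicated DMPG vesicles at 0.11 mole fraction. Lipase and compound preincubated 30 min, 37° C, in HEPES pH 8.0 buffer with CaCl2.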

[2] = biological target: hepatic lipase (HL) (Homo sapiens (Human), UniProt P11150); assay: HL assay: hepatic lipase activity with fluorescent substrate A10070 in DMPG vesicles; format: biochemical
Outline: as §1

Chain of hepatic lipase (HL) (P11150 23-499, species assumed): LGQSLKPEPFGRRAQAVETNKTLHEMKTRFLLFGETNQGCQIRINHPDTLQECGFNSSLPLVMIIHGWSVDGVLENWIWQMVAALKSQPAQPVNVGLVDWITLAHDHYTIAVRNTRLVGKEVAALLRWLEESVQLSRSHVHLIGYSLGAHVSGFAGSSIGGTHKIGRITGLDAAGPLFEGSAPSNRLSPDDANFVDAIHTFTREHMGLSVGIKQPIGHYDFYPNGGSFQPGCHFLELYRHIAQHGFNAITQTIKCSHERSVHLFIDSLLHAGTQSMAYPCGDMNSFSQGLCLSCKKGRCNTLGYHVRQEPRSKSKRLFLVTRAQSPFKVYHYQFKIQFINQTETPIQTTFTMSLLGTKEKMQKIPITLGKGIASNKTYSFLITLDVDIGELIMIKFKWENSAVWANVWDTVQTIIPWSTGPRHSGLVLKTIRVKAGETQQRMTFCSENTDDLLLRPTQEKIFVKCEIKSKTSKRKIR
Chain of Endothelial lipase (EL) (Q9Y5X9 21-500): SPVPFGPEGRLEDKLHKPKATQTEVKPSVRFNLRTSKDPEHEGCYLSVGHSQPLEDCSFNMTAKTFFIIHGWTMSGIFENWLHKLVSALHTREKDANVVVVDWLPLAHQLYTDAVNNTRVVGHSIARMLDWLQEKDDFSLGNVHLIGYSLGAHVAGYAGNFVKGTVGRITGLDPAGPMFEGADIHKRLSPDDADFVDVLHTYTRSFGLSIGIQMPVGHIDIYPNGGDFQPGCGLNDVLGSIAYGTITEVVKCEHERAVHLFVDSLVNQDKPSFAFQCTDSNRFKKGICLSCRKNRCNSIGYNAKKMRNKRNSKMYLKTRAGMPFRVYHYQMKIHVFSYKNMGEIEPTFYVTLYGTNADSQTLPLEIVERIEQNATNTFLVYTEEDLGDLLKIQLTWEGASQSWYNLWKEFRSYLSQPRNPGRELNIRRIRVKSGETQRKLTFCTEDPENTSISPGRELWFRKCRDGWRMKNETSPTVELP

Compound	pIC50 [1]	pIC50 [2]
COC1CN(C(=O)c2ccc(-c3ccc4nc(C(C(=O)NCCS(N)(=O)=O)S(=O)(=O)Cc5ccc(C(F)(F)F)cc5)sc4c3)cc2)C1 (stereo not shown) [Example B299]	8.25	7.13
COC1CN(C(=O)c2ccc(-c3ccc4nc(C(C(=O)NCCS(N)(=O)=O)S(=O)(=O)Cc5ccc(OC(F)(F)F)cc5)sc4c3)cc2)C1 (stereo not shown) [Example B300, 2-{6-[4-(3-methoxy-azetidine-1-carbonyl)phen-yl]-1,3-benzothiazol-2-yl}-N-(2-sulfamoyl-ethyl)-2-{[4-(trifluoro-methoxy)phenyl]methane-sulfonyl}acetamide]	8.26	7.07
COC1CN(C(=O)c2ccc(-c3ccc4nc(C(C(=O)NCCS(N)(=O)=O)S(=O)(=O)CCC(F)(F)F)sc4c3)cc2)C1 (stereo not shown) [Example B301, 2-{6-[4-(3-methoxy-azetidine-1-carbonyl)phen-yl]-1,3-benzothiazol-2-yl}-N-(2-sulfamoyl-ethyl)-2-(3,3,3-trifluoro-propanesulfonyl)acetamide]	8.11	6.95
COC1CN(C(=O)c2ccc(-c3ccc4nc(C(C(=O)NCCS(N)(=O)=O)S(=O)(=O)Cc5ccc(F)cc5)sc4c3)cc2)C1 (stereo not shown) [Example B302, 2-[(4-fluorophen-yl)methanesulfonyl]-2-{6-[4-(3-methoxyazetidine-1-carbonyl)phenyl]-1,3-benzothiazol-2-yl}-N-(2-sulfamoylethyl)acetamide]	8.14	7.28
CC(C)S(=O)(=O)C(C(=O)NCCS(N)(=O)=O)c1nc2cc(-c3ccc(F)nc3)ccc2s1 (stereo not shown) [Example B312, 2-[5-(6-fluoropyridin-3-yl)-1,3-benzothiazol-2-yl]-2-(propane-2-sulfonyl)-N-(2-sulfamoylethyl)a-cetamide]	8.21	6.82
NS(=O)(=O)CCNC(=O)C(c1nc2ccc(-c3ccc(F)nc3)cc2s1)S(=O)(=O)CCN1CCOCC1 (stereo not shown) [Example B313, 2-[6-(6-fluoropyridin-3-yl)-1,3-benzothiazol-2-yl]-2-[2-(morpholin-4-yl)ethanesulfonyl]-N-(2-sulfamoylethyl)acetamide]	7.97	6.97
NS(=O)(=O)CCNC(=O)C(c1nc2ccc(-c3ccc(CO)cc3)cc2s1)S(=O)(=O)CCN1CCOCC1 (stereo not shown) [Example B314, 2-{6-[4-(hydroxymeth-yl)phenyl]-1,3-benzothiazol-2-yl}-2-[2-(morpholin-4-yl)ethanesulfonyl]-N-(2-sulfamoylethyl)acetamide]	7.79	7.45
NS(=O)(=O)CCNC(=O)C(c1nc2ccc(-c3cncnc3)cc2s1)S(=O)(=O)CCN1CCOCC1 (stereo not shown) [Example B315, 2-[2-(morpholin-4-yl)ethanesulfonyl]-2-[6-(pyrimidin-5-yl)-1,3-benzothiazol-2-yl]-N-(2-sulfamoylethyl)acetamide]	7.25	5.00
NS(=O)(=O)CCNC(=O)C(c1nc2ccc(-c3ccc(C(F)(F)F)nc3)cc2s1)S(=O)(=O)CCN1CCOCC1 (stereo not shown) [Example B316, 2-[2-(morpholin-4-yl)ethanesulfonyl]-N-(2-sulfamoylethyl)-2-{6-[6-(trifluoromethyl)pyridin-3-yl]-1,3-benzothiazol-2-yl}acetamide]	6.84	6.40
CS(=O)(=O)C(C(=O)NCCS(N)(=O)=O)c1nc2ccc(-c3cnn(CCC4CCOCC4)c3)cc2s1 (stereo not shown) [Example B317, 2-methanesulfonyl-2-(6-{1-[2-(oxan-4-yl)ethyl]-1H-pyrazol-4-yl}-1,3-benzothiazol-2-yl)-N-(2-sulfamoylethyl)acetamide]	7.89	6.41
NS(=O)(=O)CCNC(=O)C(c1nc2ccc(-c3ccc(C(=O)N4CCC(F)(F)C4)cc3)cc2s1)S(=O)(=O)Cc1ccc(OC(F)(F)F)cc1 (stereo not shown) [Example B324, 2-{6-[4-(3,3-difluoropyrrolidine-1-carbonyl)phen-yl]-1,3-benzothiazol-2-yl}-N-(2-sulfamoyl-ethyl)-2-{[4-(trifluoro-methoxy)phen-yl]methanesulfonyl}a-cetamide]	8.04	7.24

Compounds with a higher pIC50 [1], results first:

pIC50 [1]	pIC50 [2]	Compound
8.60	7.29	NS(=O)(=O)CCNC(=O)C(c1nc2ccc(-c3ccc4c(c3)CNC4=O)cc2s1)S(=O)(=O)Cc1ccc(OC(F)(F)F)cc1 (stereo not shown) [Example B303, 2-[6-(1-oxo-2,3-dihydro-1H-isoindol-5-yl)-1,3-benzothiazol-2-yl]-N-(2-sulfamoylethyl)-2-{[4-(trifluoromethoxy)phen-yl]methanesulfonyl)a-cetamide]
9.15	7.78	CO[C@H]1CCN(C(=O)c2ccc(-c3ccc4nc(C(C(=O)NCCS(N)(=O)=O)S(=O)(=O)CCC(F)(F)F)sc4c3)cc2)C1 (stereo partly drawn) [Example B304, 2-(6-{4-[(3S)-3-methoxy-pyrrolidine-1-carbonyl]phen-yl}-1,3-benzothiazol-2-yl)-N-(2-sulfamoyl-ethyl)-2-(3,3,3-trifluoro-propanesulfonyl)acetamide]
8.52	9.00	CS(=O)(=O)C(C(=O)NCCS(N)(=O)=O)c1nc2ccc(-c3ccccc3F)cc2s1 (stereo not shown) [Example B305, 2-[6-(2-fluorophenyl)-1,3-benzothiazol-2-yl]-2-methanesulfonyl-N-(2-sulfamoylethyl)acetamide]
8.42	6.83	COCCS(=O)(=O)C(C(=O)NCCS(N)(=O)=O)c1nc2ccc(-c3ccc(C(=O)N4CC[C@H](OC)C4)cc3)cc2s1 (stereo partly drawn) [Example B306, 2-(2-methoxyethane-sulfonyl)-2-(6-{4-[(3S)-3-methoxypyrrolidine-1-carbonyl]phenyl}-1,3-benzothiazol-2-yl)-N-(2-sulfamoylethyl)acetamide]
8.89	6.71	COCCS(=O)(=O)C(C(=O)NCCS(N)(=O)=O)c1nc2cc(-c3ccc(F)nc3)ccc2s1 (stereo not shown) [Example B308, 2-[5-(6-fluoropyridin-3-yl)-1,3-benzothiazol-2-yl]-2-(2-methoxyethane-sulfonyl)-N-(2-sulfamoylethyl)acetamide]
9.30	7.17	NS(=O)(=O)CCNC(=O)C(c1nc2cc(-c3ccc(F)nc3)ccc2s1)S(=O)(=O)Cc1ccc(OC(F)(F)F)cc1 (stereo not shown) [Example B309, 2-[5-(6-fluoropyridin-3-yl)-1,3-benzothiazol-2-yl]-N-(2-sulfamoylethyl)-2-{[4-(trifluoromethoxy)phen-yl]methanesulfonyl}a-cetamide]
9.00	7.29	NS(=O)(=O)CCNC(=O)C(c1nc2cc(-c3ccc(F)nc3)ccc2s1)S(=O)(=O)Cc1ccc(F)cc1 (stereo not shown) [Example B310, 2-[(4-fluorophenyl)meth-anesulfonyl]-2-[5-(6-fluoropyridin-3-yl)-1,3-benzothiazol-2-yl]-N-(2-sulfamoylethyl)acetamide]
8.51	7.62	NS(=O)(=O)CCNC(=O)C(c1nc2cc(-c3ccc(F)nc3)ccc2s1)S(=O)(=O)CCC(F)(F)F (stereo not shown) [Example B311, 2-[5-(6-fluoropyridin-3-yl)-1,3-benzothiazol-2-yl]-N-(2-sulfamoylethyl)-2-(3,3,3-trifluoropropane-sulfonyl)acetamide]
8.74	6.04	CC1(O)CN(C(=O)c2ccc(-c3ccc4nc(C(C(=O)NCCS(N)(=O)=O)S(C)(=O)=O)sc4c3)cc2)C1 (stereo not shown) [Example B318, 2-{6-[4-(3-hydroxy-3-methylazetidine-1-carbonyl)phenyl]-1,3-benzothiazol-2-yl}-2-methanesulfonyl-N-(2-sulfamoylethyl)acetamide]
8.32	6.00	CC1(O)CN(C(=O)c2ccc(-c3ccc4sc(C(C(=O)NCCS(N)(=O)=O)S(C)(=O)=O)nc4c3)cc2)C1 (stereo not shown) [Example B319, 2-{5-[4-(3-hydroxy-3-methylazetidine-1-carbonyl)phenyl]-1,3-benzothiazol-2-yl}-2-methanesulfonyl-N-(2-sulfamoylethyl)acetamide]
8.72	5.90	CC1(O)CN(C(=O)c2ccc(-c3ccc4nc(C(C(=O)NCCS(N)(=O)=O)S(=O)(=O)CCC(F)(F)F)sc4c3)cc2)C1 (stereo not shown) [Example B320, 2-{6-[4-(3-hydroxy-3-methylazetidine-1-carbonyl)phenyl]-1,3-benzothiazol-2-yl}-N-(2-sulfamoylethyl)-2-(3,3,3-trifluoropropanesulfonyl)a-cetamide]
9.22	6.76	CS(=O)(=O)C(C(=O)NCCS(N)(=O)=O)c1nc2cc(-c3ccc(C(=O)N4CC(F)(F)C4)cc3)ccc2s1 (stereo not shown) [Example B321, 2-{5-[4-(3,3-difluoroazetidine-1-carbonyl)phenyl]-1,3-benzothiazol-2-yl}-2-methanesulfonyl-N-(2-sulfamoylethyl)acetamide]
8.62	7.43	CC1(O)CN(C(=O)c2ccc(-c3ccc4nc(C(C(=O)NCCS(N)(=O)=O)S(=O)(=O)Cc5ccc(C(F)(F)F)cc5)sc4c3)cc2)C1 (stereo not shown) [Example B322, 2-{6-[4-(3-hydroxy-3-methylazetidine-1-carbonyl)phenyl]-1,3-benzothiazol-2-yl}-N-(2-sulfamoylethyl)-2-{[4-(trifluoromethyl)phen-yl]methanesulfonyl}a-cetamide]
8.59	7.09	CC1(O)CN(C(=O)c2ccc(-c3ccc4nc(C(C(=O)NCCS(N)(=O)=O)S(=O)(=O)Cc5ccc(OC(F)(F)F)cc5)sc4c3)cc2)C1 (stereo not shown) [Example B323, 2-{6-[4-(3-hydroxy-3-methylazetidine-1-carbonyl)phenyl]-1,3-benzothiazol-2-yl}-N-{2-sulfamoylethyl)-2-{[4-(trifluoromethoxy)phen-yl]methanesulfonyl}a-cetamide]
8.92	6.98	Cc1cc2nc(C(C(=O)NCCS(N)(=O)=O)S(=O)(=O)Cc3ccccc3)sc2cc1-c1ccc(C(=O)O)cc1 (stereo not shown) [Example B325, 4-(5-methyl-2-{phen-ylmethanesulfonyl[(2-sulfa-moylethyl)carbamoyl]meth-yl}-1,3-benzothiazol-6-yl)benzoic acid]
